Laboratory results taken from patent US10966912B2, “Medicament” (SYMRISE AG, priority 2016, dated 2021).

Key:
Type in all cases: cell-based
[1] = system: Human epidermal melanoma cells A375; assay: Basal melanin formation in vitro; conditions: for melanin: basal
[2] = system: Human epidermal melanoma cells A375; assay: Visible light induced hyperpigmentation in vitro; conditions: for Inhibition vs visible light induced / melanin: visible light 480 J/cm2, A375 cells; for melanin: treated 48 h before and after irradiation
Protocol: Human epidermal melanoma cells A375 were cultured in 6-well plates. The cells were exposed to visible light (480 J/cm2) with Hydrosun 750 equipped with KG1 filter. 48 h prior to and past to the irradiation the cells were treated with test compounds in non-cytotoxic concentrations. Melanocytes were lysed in a solution of NaOH. Melanin was quantified by measurement of absorbance at 405 nm and calculation based on a melanin standard curve.

[3] = system: ex vivo human skin explants; assay: Melanin formation after visible light irradiation on ex vivo human skin; conditions: visible light 480 J/cm2; for Inhibition vs Placebo: ex vivo human skin; for % of melanin: topical on skin explant phototype IV, Fontana-Masson stain, image analysis
Protocol: The below formulations were applied on ex vivo human skin explants from abdominal surgery of a donor with phototype IV (Fitzpatrick scale). 48 h after the formulations were removed with a cotton pad. Skin explants were exposed to visible light (480 J/cm2) with Hydrosun 750 equipped with KG1 filter. Formulations were reapplied afterwards. 48 h later skin sections were prepared and melanin was stained by Fontana-Masson stain. Quantification of melanin was done by image analysis.

`NCCC(=O)N[C@@H](Cc1cnc[nH]1)C(=O)O` [L-carnosine] was tested, and the “effect on basal melanin formation” value [1] was “no effect”, the melanin ([1]; 0.001% L-carnosine) was 0.6845 µg and the melanin ([1]; 0.00316% L-carnosine) was 0.6186 µg. For the same molecule, the “Inhibition vs visible light induced” value ([2]; 0.001% L-carnosine) was 110%, the melanin ([2]; 0.001% L-carnosine) was 0.5601 µg and the “Inhibition vs visible light induced” value ([2]; 0.00316% L-carnosine) was 113%. The melanin ([2]; 0.00316% L-carnosine) was 0.5478 µg, the “Inhibition vs visible light induced” value ([2]; 0.01% L-carnosine) was 81% and the melanin ([2]; 0.01% L-carnosine) was 0.6594 µg. For the same molecule, the “Inhibition vs visible light induced” value ([2]; 0.0316% L-carnosine) was 90%, the melanin ([2]; 0.0316% L-carnosine) was 0.6296 µg and the “visible light induced hyperpigmentation” value ([2]; A375 cells) was “inhibits significantly”. The “Inhibition vs Placebo” value ([3]; 0.05% L-carnosine (formulation C)) was 91.1%, the “% of melanin” value ([3]; 0.05% L-carnosine (formulation C, Table 3)) was 35.74 ± 2.6% and the “Inhibition vs Placebo” value ([3]; 0.2% L-carnosine (formulation B)) was 92.2%. The “% of melanin” value ([3]; 0.2% L-carnosine (formulation B, Table 3)) was 35.44 ± 2.3%.
